# Source: US5719278A, “Tricyclic benzazepine vasopressin antagonists” (American Cyanamid Company, priority 1996, dated 1998)
# Target: T1, Rat Hepatic V1 Receptors (Rattus norvegicus, UniProt P30560)
# T1 construct: Rat liver plasma membranes expressing the vasopressin V1 receptor subtypes; from tissue; host or cells: rat liver plasma membranes
# Assay: Binding Assay to Rat Hepatic V1 Receptors
# Conditions: Rat Hepatic V1 Receptors (no asterisk)
# Experimental: Binding Assay to Rat Hepatic V1 Receptors
# Rat liver plasma membranes expressing the vasopressin V1 receptor subtypes are isolated by sucrose density gradient according to the method described by Lesko et al., (1973). These membranes are quickly suspended in 50.0 mM Tris.HCl buffer, pH 7.4, containing 0.2% bovine serum albumin (BSA) and 0.1 mM phenylmethylsulfonylfluoride (PMSF) and kept frozen at -70° C. until used in subsequent binding experiments. For binding experiments, the following is added to the wells of a ninety-six well format microtiter plate: 100 μl of 100.0 mM Tris.HCl buffer containing 10.0 mM MgCl2, 0.2% heat inactivated BSA and a mixture of protease inhibitors: leupeptin, 1.0 mg %; aprotinin, 1.0 mg %, 1,10-phenanthroline,2.0 mg %; trypsin inhibitor, 10.0 mg % and 0.1 mM PMSF, 20.0 μl of [phenylalanyl-3,4,5-^3 H] vasopressin (S.A. 45.1 Ci/mmole) at 0.8 nM, and the reaction initiated by the addition of 80 μl of tissue membranes containing 20 μg of tissue protein. The plates are kept undisturbed on the bench top at room temperature for 120 min. to reach equilibrium. Non-specific samples are assayed in the presence of 0.1 μM of the unlabeled antagonist phenylalanylvasopressin, added in 20.0 μl volume to a final incubation volume of 200 μl. Upon completion of binding, the content of each well is filtered off, using a Brandel® cell Harvester (Gaithersburg, Md.). The radioactivity trapped on the filter disk by the ligand-receptor complex is assessed by liquid scintillation counting in a Packard LS Counter, with an efficiency of 65% for tritium. The data are analyzed for IC50 values by the LUNDON-2 program for competition (LUNDON SOFTWARE, Ohio).
# T1 sequence (P30560 whole entry): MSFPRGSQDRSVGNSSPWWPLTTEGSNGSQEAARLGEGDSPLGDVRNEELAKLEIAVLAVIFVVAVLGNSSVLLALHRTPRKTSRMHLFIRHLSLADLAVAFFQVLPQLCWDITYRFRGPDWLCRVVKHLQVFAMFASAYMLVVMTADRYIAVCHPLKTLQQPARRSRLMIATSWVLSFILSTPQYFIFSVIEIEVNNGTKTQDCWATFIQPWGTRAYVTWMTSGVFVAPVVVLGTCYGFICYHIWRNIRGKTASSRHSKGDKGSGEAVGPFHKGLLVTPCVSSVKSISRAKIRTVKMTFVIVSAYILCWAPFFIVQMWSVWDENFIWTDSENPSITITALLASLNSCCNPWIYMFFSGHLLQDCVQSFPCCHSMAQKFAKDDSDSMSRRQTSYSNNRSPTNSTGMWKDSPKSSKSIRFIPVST
smiles,measurement,value
"O=C(Nc1ccc(C(=O)N2CCc3cn[nH]c3-c3sccc32)cc1)c1ccc(F)cc1Cl [Example 1, N-[4-[(4,5-Dihydropyrazolo[3,4-d]thieno[3,2-b]azepin-6(1H)-yl)carbonyl]phenyl]-2-chloro-4-fluorobenzamide]",IC50,2 µM
